The subject of series [1] is SU-DHL-6, a DLBCL line harboring a Y641N mutation in EZH2. Description: DLBCL cell growth (CellTiter-Glo) with BCL-2 inhibitor after Compound A pre-treatment, SU-DHL-6. It is filed as cell-based. Particulars: for IC50: Homo sapiens, read-out: gIC50.
Description: (§1) Plates were incubated for 6 days at 37° C. in 5% CO2. Cells were then lysed with CellTiter-Glo (CTG) (Promega) according to the manufacturer's protocol and chemiluminescent signal was detected with a TECAN Safire2 microplate reader. CTG estimates cell number through detection of cellular ATP levels. In addition, an untreated plate of cells was harvested at the time of compound addition (T0) to quantify the starting number of cells. CTG values were expressed as a percent of the T0 value and plotted against compound concentration.
The test system of series [2] is WSU-DLCL-2, a DLBCL line harboring a Y641F mutation in EZH2. Description: DLBCL cell growth (CellTiter-Glo) with BCL-2 inhibitor after Compound A pre-treatment, WSU-DLCL2. The format is cell-based. The conditions noted are these: Homo sapiens, read-out: gIC50. A general note: Cellular ATP, detected with luciferase, serves as a proxy for viable cell number.
Description: as §1
Series [3] relates to KARPAS-422, a DLBCL line harboring a Y641N mutation in EZH2. Description: DLBCL cell growth (CellTiter-Glo) with BCL-2 inhibitor after Compound A pre-treatment, KARPAS-422. The conditions noted are these: for IC50: read-out: gIC50.
Description: as §1
In series [4] the test system is Farage, a DLBCL line harboring WT EZH2. Description: DLBCL cell growth (CellTiter-Glo) with BCL-2 inhibitor after Compound A pre-treatment, Farage. It is filed as cell-based. The conditions noted are these: for IC50: read-out: gIC50.
Description: as §1
The mark [5] stands for this setting: 144 h, SU-DHL-6, BCL2 inhibitor alone (no Compound A), 6 days.
[6] abbreviates: SU-DHL-6, Compound A 250 nM 72 h pre-treatment then 6 day co-treatment.
Setting [7] is: WSUDLCL2, 144 h, WSU-DLCL2, BCL2 inhibitor alone (no Compound A), 6 days.
The mark [8] stands for this setting: WSUDLCL2, WSU-DLCL2, Compound A 250 nM 72 h pre-treatment then 6 day co-treatment.
Where [9] appears, read: KARPAS-422, BCL2 inhibitor alone (no Compound A), 6 days.
Setting [10] is: KARPAS-422, Compound A 100 nM 72 h pre-treatment then 6 day co-treatment.
[11] abbreviates: KARPAS-422, Compound A 500 nM 72 h pre-treatment then 6 day co-treatment.
The mark [12] stands for this setting: 144 h, BCL2 inhibitor alone (no Compound A), 6 days.
Setting [13] is: Compound A 1 μM 72 h pre-treatment then 6 day co-treatment.

Read-outs that look alike come from different tables or passages of the source.

As for `CC1(C)CCC(c2ccc(Cl)cc2)=C(CN2CCN(c3ccc(C(=O)NS(=O)(=O)c4ccc(N[C@H](CCN5CCOCC5)CSc5ccccc5)c(S(=O)(=O)C(F)(F)F)c4)cc3)CC2)C1` [ABT-263], the IC50 was 518 nM in series [1] (setting [5]); 17 nM in series [1] (setting [6]); 464 nM in series [2] (setting [7]); 1150 nM in series [2] (setting [8]); 169 nM in series [3] (setting [9]); 60 nM in series [3] (setting [10]). The IC50 worked out at 0.4 nM in series [3] (setting [11]), 455 nM in series [4] (setting [12]) and 11 nM in series [4] (setting [13]). In addition, the “Fold shift in potency over ABT-263 alone” value in series [1] (SU-DHL-6, Compound A 250 nM) came to 31; in series [3] (KARPAS-422, Compound A 100 nM), 2.8; in series [3] (KARPAS-422, Compound A 500 nM), 423; in series [4] (Compound A 1 μM) it was 43.
For `CN(C)CC[C@H](CSc1ccccc1)Nc1ccc(S(=O)(=O)NC(=O)c2ccc(N3CCN(Cc4ccccc4-c4ccc(Cl)cc4)CC3)cc2)cc1[N+](=O)[O-]` [ABT-737], the IC50 in series [1] (setting [5]) was 1330 nM; in series [1] (setting [6]), 110 nM; in series [2] (setting [7]), 1410 nM; in series [2] (setting [8]), 971 nM; in series [3] (setting [9]) it was 334 nM; in series [3] (setting [10]), 78 nM. The IC50 in series [3] (setting [11]) is 1.1 nM; in series [4] (setting [12]) it was 4710 nM; in series [4] (setting [13]) it was 246 nM. Also, the “Fold shift in potency over ABT-737 alone” value in series [1] (SU-DHL-6, Compound A 250 nM) amounted to 12; in series [3] (KARPAS-422, Compound A 100 nM), 4.3; in series [3] (KARPAS-422, Compound A 500 nM), 304; in series [4] (Compound A 1 uM), 19.

The record behind these values is US20150313906A1, “COMBINATION” (GLAXOSMITHKLINE LLC, priority 2012, published 2015).
